According to US10730863B2, “Bridged bicyclic compounds as farnesoid X receptor modulators” (BRISTOL-MYERS SQUIBB COMPANY, priority 2017, dated 2020):

Target: FXR (Homo sapiens (Human), UniProt Q96RI1)
Assay: FXR EC50 (FXR agonist activity reported with each example)
Format: cell-based

Sequence of FXR (Q96RI1 262-486): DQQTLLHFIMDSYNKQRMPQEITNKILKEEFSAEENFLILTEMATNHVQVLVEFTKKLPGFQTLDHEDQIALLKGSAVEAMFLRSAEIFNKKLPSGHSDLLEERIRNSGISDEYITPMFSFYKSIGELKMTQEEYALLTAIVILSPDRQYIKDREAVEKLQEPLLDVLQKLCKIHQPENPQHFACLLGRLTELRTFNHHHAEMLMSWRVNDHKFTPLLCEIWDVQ

Row | Compound | EC50 [nM]
1 | Cn1cc(C(=O)O)c2ccc(OCC34CCC(OCc5c(-c6c(Cl)cncc6Cl)noc5C5CC5)(CC3)CC4)cc21 [Example 97, 6-((4-((5-cyclopropyl-3-(3,5-dichloropyridin-4-yl)isoxazol-4-yl)methoxy)bicyclo[2.2.2]octan-1-yl)methoxy)-1-methyl-1H-indole-3-carboxylic acid] | 28
2 | O=C(O)c1ccc(F)c(OCC23CCC(OCc4c(-c5c(Cl)cncc5Cl)noc4C4CC4)(CC2)CC3)c1 [Example 98, 3-((4-((5-cyclopropyl-3-(3,5-dichloropyridin-4-yl)isoxazol-4-yl)methoxy)bicyclo[2.2.2]octan-1-yl)methoxy)-4-fluorobenzoic acid] | 22
3 | O=C(O)c1ccc(OCC23CCC(OCc4c(-c5c(Cl)cccc5Cl)noc4C4CC4)(CC2)CC3)cc1 [Example 99, 4-((4-((5-cyclopropyl-3-(2,6-dichlorophenyl)isoxazol-4-yl)methoxy)bicyclo[2.2.2]octan-1-yl)methoxy) benzoic acid] | 140
4 | O=C(O)c1cc(C(F)(F)F)c2cc(OCC34CCC(OCc5c(-c6c(Cl)cccc6Cl)noc5C5CC5)(CC3)CC4)ccc2n1 [Example 100, 6-((4-((5-cyclopropyl-3-(2,6-dichlorophenyl)isoxazol-4-yl)methoxy)bicyclo[2.2.2]octan-1-yl)methoxy)-4-(trifluoromethyl) quinoline-2-carboxylic acid] | 7
5 | O=C(O)c1cc(OCC23CCC(OCc4c(-c5c(Cl)cncc5Cl)noc4C4CC4)(CC2)CC3)cc(C(F)(F)F)c1 [Example 103, 3-((4-((5-cyclopropyl-3-(3,5-dichloropyridin-4-yl)isoxazol-4-yl)methoxy)bicyclo[2.2.2]octan-1-yl)methoxy)-5-(trifluoromethyl)benzoic acid] | 4
6 | O=C(O)Cc1ccnc(OCC23CCC(OCc4c(-c5c(Cl)cccc5Cl)noc4C4CC4)(CC2)CC3)c1 [Example 104, 2-(2-((4-((5-cyclopropyl-3-(2,6-dichlorophenyl)isoxazol-4-yl)methoxy)bicyclo[2.2.2]octan-1-yl)methoxy)pyridin-4-yl)acetic acid] | 210
7 | O=C(O)c1ccc2cc(OCC34CCC(OCc5c(-c6c(Cl)cccc6Cl)noc5C5CC5)(CC3)CC4)ccc2n1 [Example 105, 6-((4-((5-cyclopropyl-3-(2,6-dichlorophenyl)isoxazol-4-yl)methoxy)bicyclo[2.2.2]octan-1-yl)methoxy)quinoline-2-carboxylic acid] | 76
8 | O=C(O)Cc1cccc(OCC23CCC(OCc4c(-c5c(Cl)cccc5Cl)noc4C4CC4)(CC2)CC3)c1 [Example 106, 2-(3-((4-((5-cyclopropyl-3-(2,6-dichlorophenyl)isoxazol-4-yl)methoxy)bicyclo[2.2.2]octan-1-yl)methoxy)phenyl)acetic acid] | 160
9 | O=C(O)c1ccc(OCC23CCC(OCc4c(-c5c(Cl)cccc5Cl)noc4C4CC4)(CC2)CC3)nc1 [Example 107, 6-((4-((5-cyclopropyl-3-(2,6-dichlorophenyl)isoxazol-4-yl)methoxy)bicyclo[2.2.2]octan-1-yl)methoxy)nicotinic acid] | 77
10 | O=C(O)c1ccnc(OCC23CCC(OCc4c(-c5c(Cl)cccc5Cl)noc4C4CC4)(CC2)CC3)n1 [Example 108, 2-((4-((5-cyclopropyl-3-(2,6-dichlorophenyl)isoxazol-4-yl)methoxy)bicyclo[2.2.2]octan-1-yl)methoxy)pyrimidine-4-carboxylic acid] | 540
11 | O=C(O)c1cncc(OCC23CCC(OCc4c(-c5c(Cl)cccc5Cl)noc4C4CC4)(CC2)CC3)c1 [Example 109, 5-((4-((5-cyclopropyl-3-(2,6-dichlorophenyl)isoxazol-4-yl)methoxy)bicyclo[2.2.2]octan-1-yl)methoxy)nicotinic acid] | 150
12 | O=C(O)c1cccc(OCC23CCC(OCc4c(-c5c(Cl)cccc5Cl)noc4C4CC4)(CC2)CC3)n1 [Example 110, 6-((4-((5-cyclopropyl-3-(2,6-dichlorophenyl)isoxazol-4-yl)methoxy)bicyclo[2.2.2]octan-1-yl)methoxy)picolinic acid] | 52
